The assay has as its target TPK enzyme (Homo sapiens, UniProt Q9H3S4). Kind of assay: TPK enzyme activity test (TDP formation from thiamine and ATP, HPLC detection). It counts as biochemical. Here is the method:
The purpose of this example was to test the promoting effect of compounds on TPK enzyme activity and evaluate the in vitro activity of the compounds based on EC50 and Emax.
1.1) The constant-temperature water-bath shaker was pre-heated half an hour in advance at a pre-heating temperature of 37° C.
1.2) The stock solution of the compound to be tested was taken out, allowed to thaw at room temperature, and then diluted to the required concentration.
1.3) The required reagents were placed on ice to thaw.
2.1) For each reaction system, TPK enzyme solution, Tris-HCl buffer solution, and ATP solution were added. The concentration of ATP used was 1-500 mM. The above three solutions were formulated into a homogeneous mixture.
2.2) The mixture of the above three solutions was dispensed into centrifuge tubes. Then, the compound at the required concentration was added to each centrifuge tube. Finally, thiamine solution (1-100 μM) was added. After the addition of the above system was completed, the centrifuge tubes were tightly capped, inserted into a floating board, and placed in the constant-temperature water-bath shaker that had been pre-heated to 37° C. for incubation for 0.5-2.0 hours.
2.3) After the incubation was completed, perchloric acid stop solution was added and mixed well. Samples were taken into 1.5 mL centrifuge tubes and stored at −20° C.
3.1) The samples stored at −20° C. were taken out, thawed at room temperature, and then subjected to derivatization treatment. The samples were placed in centrifuge tubes, a potassium ferricyanide derivatization reagent was added, and finally phosphoric acid stop solution was added to stop the reaction.
3.2) The derivatized samples were placed in sample vials for liquid chromatography analysis, and the contents of TDP/thiamine were detected by high performance liquid chromatography. TKP enzyme activity=TDP (nM)/mg protein/min.
The effects of the compounds of the present invention on TPK enzyme activity at different concentrations were determined according to the above procedures.

Where [1] appears, read: promoting effect on TPK enzyme activity.
The mark [2] stands for this setting: promoting effect on TPK enzyme activity, calculated with the effect of DMSO on TPK enzyme activity as 100%, read-out: Emax.
The mark [3] stands for this setting: promoting effect on TPK enzyme activity, calculated with the effect of DMSO on TPK enzyme activity as 100%.

pEC50: −log10 of the molar value. Where two headings read alike, the source gives them in different places.

Chain of TPK enzyme (Q9H3S4 whole entry): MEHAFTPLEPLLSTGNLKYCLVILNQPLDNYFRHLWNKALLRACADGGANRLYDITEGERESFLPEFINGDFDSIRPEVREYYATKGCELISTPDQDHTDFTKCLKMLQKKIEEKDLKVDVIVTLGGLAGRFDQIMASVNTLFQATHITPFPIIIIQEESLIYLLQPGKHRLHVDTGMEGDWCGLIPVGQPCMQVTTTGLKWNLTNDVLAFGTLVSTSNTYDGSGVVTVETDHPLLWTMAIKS

Take `COc1ccc(NC(=O)CN2CCN(c3cccc(Cl)c3Cl)CC2)cc1N(C)C` [Compound 48, 2-(4-(2,3-dichlorophenyl)piperazin-1-yl)-N-(3-(dimethylamino)-4-methoxyphenyl)acetamide]: the negative-log EC50 (pEC50) under setting [1] is 5.42. For the same molecule, under setting [2], the Emax was 156%.
Regarding `O=C1Cc2ccc(OCCCCN3CCN(c4cccc(Cl)c4Cl)CC3)cc2N1` [Compound 24, 6-(4-(4-(2,3-dichlorophenyl)piperazin-1-yl)butoxy)indolin-2-one], under setting [2], the maximal effect (Emax) was 189%.
Regarding `O=C(CC1Oc2ccccc2NC1=O)NCCN1CCN(c2cccc(Cl)c2Cl)CC1` (stereo not shown) [Compound 85, N-(2-(4-(2,3-dichlorophenyl)piperazin-1-yl)ethyl)-2-(3-oxo-3,4-dihydro-2H-benzo[b][1,4]oxazin-2-yl)acetamide], the Emax under setting [2] was 168%.
Under setting [1], `CC(CNC(=O)COc1ccc2c(c1)CCC(=O)N2)N1CCCC1` (stereo not shown) [Compound 152] showed a negative-log EC50 (pEC50) of 5.02. For the same molecule, the maximum response (Emax) under setting [2] is 161%.
As for `C[C@@H]1C[C@@H](COc2ccc3c(c2)NC(=O)CC3)CN(CC[C@@H](N)c2cccc(Cl)c2Cl)C1` [Compound 135, 7-(((3R,5R)-1-((R)-3-amino-3-(2,3-dichlorophenyl)propyl)-5-methylpiperidin-3-yl)methoxy)-3,4-dihydroquinolin-2(1H)-one], the maximum response (Emax) under setting [2] is 133%.
Under setting [1], `CCOC(=O)c1nc(CNC(=O)CCCN2CCN(c3cccc(Cl)c3Cl)CC2)sc1C` [Compound 82, ethyl 2-((4-(4-(2,3-dichlorophenyl)piperazin-1-yl)butanamido)methyl)-5-methylthiazole-4-carboxylate] gave a negative-log EC50 (pEC50) of 5.60. In addition, the maximal response (Emax) under setting [2] is 156%.
`CC(=O)N1CCCc2cc(C(=O)N3CCN(c4cccc(Cl)c4Cl)CC3)ccc21` [Compound 166, 1-(6-(4-(2,3-dichlorophenyl)piperazine-1-carbonyl)-3,4-dihydroquinolin-1(2H)-yl)ethan-1-one] displayed a maximal effect (Emax) of 156%. The molecule also gave a negative-log EC50 (pEC50) under setting [1] of 5.37.
`O=C(CN1CCN(c2ccc(F)cc2)CC1)NC(=O)NCCc1c[nH]c2ccc(F)cc12` [Compound 146]: under setting [1], the negative logarithm of the EC50 (pEC50) is 5.87. Also, the Emax under setting [2] is 175%.
As to `O=C1CCc2ccc(OCCN3CCN(c4nc5ccccc5s4)CC3)cc2N1` [Compound 34, 7-(2-(4-(benzo[d]thiazol-2-yl)piperazin-1-yl)ethoxy)-3,4-dihydroquinolin-2(1H)-one], the pEC50 under setting [1] is 5.89. In addition, the Emax under setting [2] was 189%.
Consider `COc1ccc(Cn2c(C(=O)N3CCC(CCOc4ccc5c(c4)NC(=O)CC5)CC3)cc3sccc32)cc1` [Compound 134, 7-(2-(1-(4-(4-methoxybenzyl)-4H-thieno[3,2-b]pyrrole-5-carbonyl)piperidin-4-yl)ethoxy)-3,4-dihydroquinolin-2(1H)-one], for which the maximal effect (Emax) under setting [2] is 149%.
For `Cc1ccc(Cl)cc1N1CCN(CCNC(=O)CC2Oc3ccccc3NC2=O)CC1` (stereo not shown) [Compound 84], the pEC50 under setting [1] is 5.41. The Emax under setting [3] is given as 154.70%.
The molecule `COc1cncc(C#CCN2CCN(c3cccc(Cl)c3Cl)CC2)c1` [Compound 69, 1-(2,3-dichlorophenyl)-4-(3-(5-methoxypyridin-3-yl)prop-2-yn-1-yl)piperazine] came in with an Emax of 194%. In addition, under setting [1], the pEC50 was 5.56.
Under setting [1], `O=C1NCCc2ccc(OCCCCN3CCN(c4cccc(Cl)c4Cl)CC3)cc21` [Compound 22] had a pEC50 of 5.92. For the same molecule, the maximal effect (Emax) under setting [2] was 167%.
`Oc1cncc(C#CCN2CCN(c3cccc(Cl)c3Cl)CC2)c1` [Compound 70, 5-(3-(4-(2,3-dichlorophenyl)piperazin-1-yl)prop-1-yn-1-yl)pyridin-3-ol] yielded an Emax of 147%.
For the molecule `CC(O)COc1ccc(/C=C/CN2CCN(c3cccc(Cl)c3Cl)CC2)cc1O` (stereo not shown) [Compound 62, (E)-5-(3-(4-(2,3-dichlorophenyl)piperazin-1-yl)prop-1-en-1-yl)-2-(2-hydroxypropoxy)phenol], the pEC50 under setting [1] is 6.04. Further, the Emax under setting [2] was 137%.
In the case of `O=C1CCc2ccc(OCCCCN3CCN(c4nc5ccccc5s4)CC3)cc2N1` [Compound 36, 7-(4-(4-(benzo[d]thiazol-2-yl)piperazin-1-yl)butoxy)-3,4-dihydroquinolin-2(1H)-one], under setting [1], the negative-log EC50 (pEC50) is 5.88. The Emax under setting [2] is 139%.
As for `Cc1cc2c(s1)Nc1ccccc1N=C2N1CCN(CCCOc2ccc3c(c2)NC(=O)CC3)CC1` [Compound 40, 7-(3-(4-(2-methyl-10H-benzo[b]thieno[2,3-e][1,4]diazepin-4-yl)piperazin-1-yl)propoxy)-3,4-dihydroquinolin-2(1H)-one], under setting [2], the Emax was 122%.
On the same count and under the same terms, the result for `CN(CC(=O)NCc1ccc(F)cc1)S(=O)(=O)c1ccc2[nH]c(=O)ccc2c1` [Compound 144] reads 121%.
`O=C1CCc2ccc(OCCN3CCc4cc(Cl)ccc43)cc2N1` [Compound 103, 7-(2-(5-chloroindolin-1-yl)ethoxy)-3,4-dihydroquinolin-2(1H)-one]: the pEC50 under setting [1] is 4.76. Besides, the Emax under setting [2] is 137%.
In turn, `Cc1ccc(Cl)cc1N1CCN(CCNC(=O)CC2Oc3ccccc3NC2=O)CC1` (stereo not shown) [Compound 91] gave a pEC50 under setting [1] of 4.59. Besides, the maximal effect (Emax) under setting [3] is 200.91%.
The molecule `O=C(CCc1c[nH]c2ccccc12)N1CCN(CC(=O)N2CCCC2)CC1` [Compound 139] gave a pEC50 under setting [1] of 5.09. Also, the Emax under setting [2] was 191%.
For `CC(C)C(CNC(=O)COc1ccc2c(c1)CCC(=O)N2)N1CCc2ccccc2C1` (stereo not shown) [Compound 153], in that order: 5.10 and 201%.
As for `O=C1CCc2ccc(OCCCN3CCN(c4cccc(Cl)c4Cl)CC3)cc2N1` [Compound 5], under setting [1], the pEC50 was 5.92. Further, under setting [2], the Emax was 184%.
In the case of `CC1(C)CCC(C)(C)c2cc(NC(=O)CCC(=O)N3CCN(c4cccc(Cl)c4Cl)CC3)ccc21` [Compound 31, 4-(4-(2,3-dichlorophenyl)piperazin-1-yl)-4-oxo-N-(5,5,8,8-tetramethyl-5,6,7,8-tetrahydronaphthalen-2-yl)butanamide], the maximal effect (Emax) under setting [2] is 124%.

The values above are taken from patent publication US20260076975A1, “TPK AGONIST AND METHOD FOR USING SAME TO TREAT NEURODEGENERATIVE DISEASES” (SHANGHAI RAISING PHARMACEUTICAL CO., LTD., priority 2022, published 2026).
